What was measured:
Osm1 [1] = biological target: T1, Osm1 (Saccharomyces cerevisiae, UniProt P21375); test: X-ray crystal structure, […] Å; format: binding
T1 construct: residues 32-501, N-terminal His6 tag and thrombin site in pET28a, E. coli BL21(DE3); tag removed by trypsin for crystals

Ero1 = biological target: T2, Ero1 (Saccharomyces cerevisiae, UniProt Q03103); test: free flavin reduction at […] nm; format: biochemical; conditions: free FAD as electron acceptor; DTT and thioredoxin as reductant, airtight, oxygen-depleted
T2 construct: residues 56-424, His6-MBP fusion from E. coli Origami B(DE3), H6-MBP cleaved off by TEV protease; FAD-containing
T2 sequence (Q03103 56-424): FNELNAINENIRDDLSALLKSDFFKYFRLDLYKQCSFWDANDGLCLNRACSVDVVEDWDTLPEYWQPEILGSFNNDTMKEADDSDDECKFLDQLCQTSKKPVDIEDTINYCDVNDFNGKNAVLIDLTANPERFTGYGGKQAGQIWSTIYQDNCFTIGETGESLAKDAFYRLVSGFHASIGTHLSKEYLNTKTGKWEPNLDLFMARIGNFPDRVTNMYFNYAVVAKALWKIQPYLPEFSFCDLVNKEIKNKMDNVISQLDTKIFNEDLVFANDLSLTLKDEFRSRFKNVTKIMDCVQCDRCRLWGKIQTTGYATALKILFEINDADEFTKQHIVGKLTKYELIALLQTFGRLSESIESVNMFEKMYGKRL

Osm1 [2] = biological target: T1, Osm1; test: isothermal titration calorimetry; format: binding
Excerpt: isothermal titration calorimetry on Osm1 | Injection of FAD into the ITC sample cell containing holo-Osm1 created an exothermic response

Osm1 [3] = biological target: T3, Osm1 (Saccharomyces cerevisiae, UniProt P21375, S78K/P162R); test: isothermal titration calorimetry; conditions: second FAD-binding pocket; 1 mM FAD injected into 28 µM double mutant
T3 construct: residues 32-501, N-terminal His6 tag and thrombin site in pET28a, E. coli BL21(DE3); tag removed by trypsin for crystals
T3 sequence (P21375 32-501 S78K/P162R): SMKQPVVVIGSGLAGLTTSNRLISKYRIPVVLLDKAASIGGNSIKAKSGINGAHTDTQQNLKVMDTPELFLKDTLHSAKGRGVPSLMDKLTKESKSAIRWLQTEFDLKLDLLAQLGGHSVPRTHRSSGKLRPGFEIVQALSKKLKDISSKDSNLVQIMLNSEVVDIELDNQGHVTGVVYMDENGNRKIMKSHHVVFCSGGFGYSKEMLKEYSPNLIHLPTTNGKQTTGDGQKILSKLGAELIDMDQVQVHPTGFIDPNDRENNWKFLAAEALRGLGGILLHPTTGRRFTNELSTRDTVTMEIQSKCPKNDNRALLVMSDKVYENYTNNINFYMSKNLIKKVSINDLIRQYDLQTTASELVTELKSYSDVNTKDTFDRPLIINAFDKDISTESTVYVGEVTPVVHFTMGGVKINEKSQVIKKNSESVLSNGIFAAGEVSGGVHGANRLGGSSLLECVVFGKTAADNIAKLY

T1 sequence (P21375 32-501): as the sequence (P21375 32-501 S78K/P162R) above, with K47S, R131P counted along it

Kd (Osm1 [2]) [µM]	Compound	X-ray crystal structure, 1.8 Å (Osm1 [1]; active site next to the isoalloxazine ring of cofactor FAD)	free flavin reduction at 450 nm (Ero1)	X-ray crystal structure, 1.8 Å (Osm1 [1]; first (cofactor) site, non-covalent, complex with fumarate)	no detectable thermal response (Osm1 [3])
	O=C(O)/C=C/C(=O)O [fumarate]	S78, S79, H281, R326, H435, R477, and G480 from Osm1 are involved in the binding of fumarate			
4.92	Cc1cc2nc3c(=O)[nH]c(=O)nc-3n(C[C@H](O)[C@H](O)[C@H](O)COP(=O)(O)OP(=O)(O)OC[C@H]3O[C@@H](n4cnc5c(N)ncnc54)[C@H](O)[C@@H]3O)c2cc1C [FAD]		Ero1 could only use free FAD, but not FMN or riboflavin, under oxygen-depleted conditions	residues, including A45, K66, N73, S74, S79, G80, V194, D260, E467, S482, and L483	injection of FAD into the S78K/P162R mutant did not show any detectable thermal response

From paper PMC6242907, “Molecular basis of maintaining an oxidizing environment under anaerobiosis by soluble fumarate reductase” (Nature Communications, 2018)
